Assay results taken from patent US20070053869A1, “Formulation and method for enhancement of gastrointestinal absorption of pharmaceutical agents” (priority 2005, published 2007).
Read-outs that look alike come from different tables or passages of the source.

What was measured:
GFP MDCK-II cells = assay: [3H]-mitoxantrone accumulation in GFP-transduced MDCK-II control cells; format: cell-based
ABCG2 [1] = biological target: T1, ABCG2 (Homo sapiens, UniProt Q9UNQ0); assay: [3H]-mitoxantrone accumulation in ABCG2-transduced MDCK-II cells (BCRP MDCK-II)
T1 sequence (Q9UNQ0 1-655): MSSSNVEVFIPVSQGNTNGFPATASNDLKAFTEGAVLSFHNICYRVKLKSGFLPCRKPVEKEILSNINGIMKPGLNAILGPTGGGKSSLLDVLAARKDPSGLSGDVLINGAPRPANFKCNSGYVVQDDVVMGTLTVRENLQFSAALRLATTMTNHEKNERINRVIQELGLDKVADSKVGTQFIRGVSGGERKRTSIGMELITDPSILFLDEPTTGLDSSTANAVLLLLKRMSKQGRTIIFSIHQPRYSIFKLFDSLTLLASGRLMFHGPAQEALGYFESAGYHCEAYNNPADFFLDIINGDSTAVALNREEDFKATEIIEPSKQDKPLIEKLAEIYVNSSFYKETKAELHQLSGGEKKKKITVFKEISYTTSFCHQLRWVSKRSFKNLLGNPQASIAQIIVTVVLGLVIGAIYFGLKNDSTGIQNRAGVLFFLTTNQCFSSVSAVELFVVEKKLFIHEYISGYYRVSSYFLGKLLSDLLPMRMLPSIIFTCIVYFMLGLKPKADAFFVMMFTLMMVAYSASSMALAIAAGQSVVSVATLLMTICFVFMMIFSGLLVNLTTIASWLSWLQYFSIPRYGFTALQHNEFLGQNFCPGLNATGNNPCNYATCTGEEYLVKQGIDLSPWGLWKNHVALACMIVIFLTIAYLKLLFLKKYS
Description: Methods: For constructing MDCK-II cells expressing human ABCG2 or green fluorescent protein (GFP), MDCK-II cells were infected with recombinant adenoviruses containing human ABCG2 or GFP cDNA at 48 h prior to the experiments. ABCG2 or GFP-transduced cells were preincubated in prewarmed transport buffer for 15 min. Subsequently, [^3H]-mitoxantrone (MTX) was added in transport buffer to apical compartments. Accumulation of radiolabeled substrates was allowed for 2 h at 37° C. with or without an appropriate concentration of pharmaceutical excipients, 20 μM of GF120918 or 5 μM of PSC833. The reactions were arrested by washing cells with ice-cold transport buffer. Cells were solubilized and then the lysates were transferred to a liquid scintillation counter for measurement of radioactivity.
To abolish the influence of endogenous P-gp, PSC833 (P-gp inhibitor) was added during the incubation for 2 h, except that in the samples treated with GF120918 (a shared ABCG2 and P-gp inhibitor) no PSC833 was added.
The inhibitory effect of excipients on ABCG2 was further characterized in an intracellular accumulation study. MDCK-II cells overexpressing ABCG2 (BCRP MDCK-II) and, as controls, MDCK-II cells overexpressing green fluorescence protein (GFP) (GFP MDCK-II) were prepared. Mitoxantrone was used as the substrate. Intracellular mitoxantrone accumulation in the presence or absence of excipients was determined.
To discover the excipients that can inhibit ABCG2, we performed an intracellular accumulation study using BCRP MDCK-II and GFP MDCK-II cells in the absence or presence of excipients. Mitoxantrone was used as the substrate. To abolish the effect of endogenous P-gp, this experiment was performed in the presence of PSC833. […] All of the excipients were used below their cmc, because above their cmc, excipients form micelles that can interact with the substrate, and as a consequence the effective concentration of mitoxantrone in the experimental medium can decrease.

[2] = reported in literature; cited from earlier work
[3] = critical micelle concentration by surface tension in a transport buffer; format: physicochemical
Description: The critical micelle concentration can be measured by a surface tension method,-e.g. using a Tensiometer, or other methods known in the art. Any suitable method known in the art can be used to measure the cmc. In a particular embodiment ASTM D 971 REV A is used.
Therefore, we determined the cmc of the 11 excipients used above, and others, by measuring surface tension in a transport buffer. […] The concentration beyond which there was no further change in surface tension was taken as the cmc.

ABCG2 [4] = biological target: T1, ABCG2
Description: (§6) Measurement of the uptake of [^3H]-estrone-3-sulfate (E1S) was carried out for 11 pharmaceutical excipients at or near their reported critical micelle concentrations using ABCG2-expressing membrane vesicles.
(§7) Eleven of the pharmaceutical excipients of Table 2 were examined for effect on ABCG2 function at their cmc. The inhibitory mechanism of ABCG2 inhibition by pharmaceutical excipients was also investigated. […] The uptake of E1S into these membrane vesicles was examined in the presence and absence of the first eleven excipients of Table 2.
(§8) The IC50 values for these excipients, and their mode of inhibitory action for the function of ABCG2 were evaluated and determined.
(§9) Km and Vmax were calculated for ABCG2 inhibition by excipients at a concentration near the IC50 values. Then, their values were compared to those obtained in the absence of excipient. […] Results are the means±SE (n=3).

P-gp = P-gp (Homo sapiens, UniProt P08183); assay: mitoxantrone accumulation in P-gp MDCK-II cells
P-gp, sequence (P08183 whole entry): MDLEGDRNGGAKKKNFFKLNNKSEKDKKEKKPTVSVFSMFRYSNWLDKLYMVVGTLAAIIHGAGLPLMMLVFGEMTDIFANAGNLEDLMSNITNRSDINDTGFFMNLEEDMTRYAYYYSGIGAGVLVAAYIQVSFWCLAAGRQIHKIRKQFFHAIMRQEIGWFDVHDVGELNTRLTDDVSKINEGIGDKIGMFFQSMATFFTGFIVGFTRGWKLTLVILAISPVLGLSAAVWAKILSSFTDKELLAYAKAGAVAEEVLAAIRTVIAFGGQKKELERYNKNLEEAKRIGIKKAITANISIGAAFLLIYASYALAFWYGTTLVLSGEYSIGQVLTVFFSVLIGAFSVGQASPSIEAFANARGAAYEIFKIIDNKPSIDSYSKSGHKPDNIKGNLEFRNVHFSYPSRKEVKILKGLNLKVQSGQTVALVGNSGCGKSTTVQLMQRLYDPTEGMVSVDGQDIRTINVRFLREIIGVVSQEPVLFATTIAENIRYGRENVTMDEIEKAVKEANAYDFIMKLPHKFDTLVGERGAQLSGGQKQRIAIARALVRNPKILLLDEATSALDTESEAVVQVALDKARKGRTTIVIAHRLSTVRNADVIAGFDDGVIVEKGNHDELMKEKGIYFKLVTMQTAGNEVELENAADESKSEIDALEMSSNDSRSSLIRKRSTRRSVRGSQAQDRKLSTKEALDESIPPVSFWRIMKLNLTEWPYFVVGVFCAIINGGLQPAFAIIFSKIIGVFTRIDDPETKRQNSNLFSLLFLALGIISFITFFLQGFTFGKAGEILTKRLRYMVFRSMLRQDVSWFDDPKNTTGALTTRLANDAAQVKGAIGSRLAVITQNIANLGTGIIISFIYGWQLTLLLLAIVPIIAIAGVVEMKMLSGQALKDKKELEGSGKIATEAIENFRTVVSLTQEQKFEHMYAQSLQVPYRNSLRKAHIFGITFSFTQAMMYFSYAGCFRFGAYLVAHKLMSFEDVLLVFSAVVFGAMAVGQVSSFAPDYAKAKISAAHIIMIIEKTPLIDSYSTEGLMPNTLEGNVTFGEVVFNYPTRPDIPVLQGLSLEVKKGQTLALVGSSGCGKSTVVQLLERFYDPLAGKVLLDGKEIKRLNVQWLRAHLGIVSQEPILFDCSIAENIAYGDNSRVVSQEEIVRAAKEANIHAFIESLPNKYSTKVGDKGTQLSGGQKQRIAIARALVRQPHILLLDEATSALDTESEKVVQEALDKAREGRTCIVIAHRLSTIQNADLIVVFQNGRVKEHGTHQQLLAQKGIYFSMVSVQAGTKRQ
Description: Moreover, to investigate the inhibitory effect of excipients on P-gp, we also performed an intracellular accumulation study for 15 excipients using P-gp MDCK-II cells. Mitoxantrone was again used as the substrate.

ABCG2 [5] = biological target: T1, ABCG2; assay: [3H]-estrone-3-sulfate (E1S) uptake into ABCG2-expressing membrane vesicles from HEK293 cells
Description: as §6, §7, §8, §9

[6] = mouse, in vivo
Description: (§1) Topotecan (1 mg/kg) was administered orally to wild-type and female bcrp1 KO mice. We then determined the plasma concentration of topotecan as a function of time (FIG. 9).
(§2) We then determined the plasma concentration of topotecan as a function of time.
(§3) Topotecan was also administered intravenously, for comparison. […] We then determined the plasma concentration of topotecan as a function of time.
(§4) The dose of topotecan was 1000 μg/kg of body weight.
(§5) The product of Fa and Fg is presystemic bioavailability for drugs not further metabolized in the liver. […] We determined Fa*Fg using Eh=CLTOT,BLOOD/Qh where Qh is 5.4 (L/h/kg). The fold change relative to wild type control is also presented.

[7] = ratio of topotecan concentration in blood to plasma; conditions: mouse, blood and plasma; mice; read-out: RB, ratio of topotecan concentration in blood to plasma
[8] = mouse, in vivo; remark: listed apart in the source
Description: as §1, §2, §3, §4, §5

GFP/MDCK II cells = assay: intracellular ATP level, luciferin/luciferase assay, GFP/MDCK II cells; format: cell-based; conditions: sodium azide 100 mM; P85 copolymer 20 μM; polysorbate 20 250 μM; polyoxyl 35 castor oil 50 μM; sorbitan monolaurate 100 μM; lauryl PEG ether 100 μM; n=3

Molecule: COc1cc2c(cc1OC)CN(CCc1ccc(NC(=O)c3cccc4c(=O)c5cccc(OC)c5[nH]c34)cc1)CC2 [GF120918]
- accumulation of MTX in GFP-transduced cells (in words) (GFP MDCK-II cells; Example 1, 20 μM GF120918, 2 h): no consistent effect
- initial accumulation of mitoxantrone, BCRP versus GFP MDCK-II cells (ABCG2 [1]): no significant difference
- accumulation of MTX in ABCG2-transduced cells compared to control (ABCG2 [1]; human, 2 h, 20 μM): 1.4 times

Molecule: CCCCCCCCCCCCO[C@@H]1O[C@H](CO)[C@@H](O[C@H]2O[C@H](CO)[C@@H](O)[C@H](O)[C@H]2O)[C@H](O)[C@H]1O [LM, n-dodecyl-β-D-maltopyranoside]
- Reference cmc [2]: 170 µM
- Measured cmc [3]: 688 µM
- effect on ABCG2-mediated E1S uptake into vesicles (in words) (ABCG2 [4]): less or no effect

Molecule: C/C=C/C[C@@H](C)C(=O)[C@H]1C(=O)N[C@@H](C(C)C)C(=O)N(C)CC(=O)N(C)[C@@H](CC(C)C)C(=O)N[C@@H](C(C)C)C(=O)N(C)[C@@H](CC(C)C)C(=O)N[C@@H](C)C(=O)N[C@H](C)C(=O)N(C)[C@@H](CC(C)C)C(=O)N(C)[C@@H](CC(C)C)C(=O)N(C)[C@@H](C(C)C)C(=O)N1C [PSC833]
- mitoxantrone accumulation in GFP MDCK-II cells (in words) (GFP MDCK-II cells; Example 7, P-gp study, endogenous P-gp): reversed
- initial accumulation of mitoxantrone in GFP MDCK-II cells (GFP MDCK-II cells; initial time course): slightly increased
- mitoxantrone accumulation in P-gp MDCK-II (P-gp; 1 hr (printed 'I hr')): markedly increased
- mitoxantrone accumulation in P-gp MDCK-II cells (in words) (P-gp; Example 7): markedly reversed
- initial accumulation of mitoxantrone in P-gp MDCK-II cells (P-gp; initial 5 min): significantly increased

Molecule: CCCCCCCCCCCCOCCOCCOCCOCCO [Polyoxyl 4 lauryl ether, Lauryl polyethylene glycol ether]
- IC50 (ABCG2 [5]): 77.5 ± 4.1 µM

Molecule: CC[C@@]1(O)C(=O)OCc2c1cc1n(c2=O)Cc2cc3c(CN(C)C)c(O)ccc3nc2-1 [topotecan]
- Eh of topotecan [6]: 0.37
- F of topotecan [6]: 0.12
- Fa × Fg of topotecan [6]: 0.19
- Fh of topotecan [6]: 0.63
- CLtot,plasma of topotecan ([6]; po, 1000 ug/kg): 333 mL/min/kg
- blood plasma ratio [7]: 1.2
- Eh of topotecan [8]: 0.22
- F of topotecan [8]: 0.27
- Fa × Fg of topotecan [8]: 0.35
- Fh of topotecan [8]: 0.78
- Fold Change of Fa × Fg relative to wild type control [8]: 1.8
- CLtot,plasma of topotecan ([8]; po, 1000 ug/kg): 86.7 mL/min/kg

Molecule: Polyoxyethyleneglyceroltrihydroxystearate [Polyoxyl 40 hydrogenated castor oil]
- mitoxantrone accumulation in P-gp MDCK-II cells (in words) (P-gp): increased

Molecule: Polyoxyethyleneglyceroltriricinoleate 35 [Polyoxyl 35 castor oil]
- mitoxantrone accumulation in P-gp MDCK-II cells (in words) (P-gp): increased

Molecule: Polyoxyethylenesorbitan monolaurate
- mitoxantrone accumulation in P-gp MDCK-II cells (in words) (P-gp): increased

Molecule: Polyoxyethylenesorbitan monooleate
- inhibition of ABCG2 in the intact cell assay (ABCG2 [1]): did not inhibit ABCG2
- mitoxantrone accumulation in P-gp MDCK-II cells (in words) (P-gp): increased

Molecule: Sorbitan monolaurate
- intracellular ATP, GFP/MDCK II (GFP/MDCK II cells): 132.8 ± 3.6 nmol/mg protein
- Reference cmc [2]: 100 µM
- mitoxantrone accumulation in BCRP MDCK-II cells (in words) (ABCG2 [1]; Example 7, excipients below their cmc, in the presence of PSC833): significantly increased
- mitoxantrone accumulation in P-gp MDCK-II cells (in words) (P-gp; Example 7): increased

Molecule: Sorbitan monooleate
- Reference cmc [2]: 100 µM

Molecule: Sorbitan monopalmitate
- Reference cmc [2]: 200 µM
